Test results: PMC5218480 (PLoS ONE, 2017)

Tested on: MV-4-11 cells
Test: Gene expression microarray analysis (Affymetrix PrimeView) and GSEA
Format: cell-based, human
Design: RFU PODN (11730768_x_at) / Fold change /veh PODN (11730768_x_at) / RFU LINC00158 (11744669_a_at) / Fold change /veh LINC00158 (11744669_a_at) / RFU DUSP10 (11751237_a_at) / Fold change /veh DUSP10 (11751237_a_at) / RFU ID3 (11757404_x_at) / Fold change /veh ID3 (11757404_x_at) / RFU PLEKHG5 (11737974_s_at) / Fold change /veh PLEKHG5 (11737974_s_at) / RFU LRRC4B (11730491_at) / Fold change /veh LRRC4B (11730491_at) / RFU GIMAP4 (11747438_a_at) / Fold change /veh GIMAP4 (11747438_a_at) / RFU KRT8 (11758183_x_at) / Fold change /veh KRT8 (11758183_x_at) / RFU CNN1 (11734310_a_at) / Fold change /veh CNN1 (11734310_a_at) / RFU VPS37D (11726825_at) / Fold change /veh VPS37D (11726825_at) / RFU C10orf10 (11716522_x_at) / Fold change /veh C10orf10 (11716522_x_at) / RFU KIR2DL2 /// KIR2DL4 /// KIR2DL5A /// KIR2DL5B /// KIR2DS1 /// KIR2DS2 /// KIR2DS3 /// KIR2DS4 /// KIR3DL3 /// KIR3DL3 /// KIR3DS1 (11738374_at) / Fold change /veh KIR2DL2 /// KIR2DL4 /// KIR2DL5A /// KIR2DL5B /// KIR2DS1 /// KIR2DS2 /// KIR2DS3 /// KIR2DS4 /// KIR3DL3 /// KIR3DL3 /// KIR3DS1 (11738374_at) / RFU C1QL1 (11718748_at) / Fold change /veh C1QL1 (11718748_at) / RFU TMPRSS4 (11747572_a_at) / Fold change /veh TMPRSS4 (11747572_a_at) / RFU HAMP (11756126_x_at) / Fold change /veh HAMP (11756126_x_at) / RFU RNFT2 (11725882_a_at) / Fold change /veh RNFT2 (11725882_a_at) / RFU NR4A2 (11747474_a_at) / Fold change /veh NR4A2 (11747474_a_at) / RFU ABCC12 (11746883_a_at) / Fold change /veh ABCC12 (11746883_a_at) / RFU TMEM136 (11760407_x_at) / Fold change /veh TMEM136 (11760407_x_at) / RFU CLDN22 /// WWC2 (11732394_at) / Fold change /veh CLDN22 /// WWC2 (11732394_at) / RFU HLA-DPB1 (11760878_x_at) / Fold change /veh HLA-DPB1 (11760878_x_at) / RFU SPINT1 (11716480_a_at) / Fold change /veh SPINT1 (11716480_a_at) / RFU GAP43 (11754022_s_at) / Fold change /veh GAP43 (11754022_s_at) / RFU A4GNT (11735810_at) / Fold change /veh A4GNT (11735810_at) / RFU PRB3 (11715151_x_at) / Fold change /veh PRB3 (11715151_x_at) / RFU TUBB4B (11761932_at) / Fold change /veh TUBB4B (11761932_at) / RFU CAPN14 (11732068_a_at) / Fold change /veh CAPN14 (11732068_a_at) / RFU TMCC2 (11721928_a_at) / Fold change /veh TMCC2 (11721928_a_at) / RFU IRGQ (11745062_a_at) / Fold change /veh IRGQ (11745062_a_at) / RFU FAM174B (11720279_a_at) / Fold change /veh FAM174B (11720279_a_at) / RFU TMPRSS4 (11748680_a_at) / Fold change /veh TMPRSS4 (11748680_a_at) / RFU FAM212B (11763350_a_at) / Fold change /veh FAM212B (11763350_a_at) / RFU PLEKHG5 (11743358_a_at) / Fold change /veh PLEKHG5 (11743358_a_at) / RFU ZSCAN30 (11745921_a_at) / Fold change /veh ZSCAN30 (11745921_a_at) / RFU CMKLR1 (11741424_a_at) / Fold change /veh CMKLR1 (11741424_a_at) / RFU LOC101060620 /// MAPK8IP1 (11723275_at) / Fold change /veh LOC101060620 /// MAPK8IP1 (11723275_at) / RFU SPTSSB (11747773_x_at) / Fold change /veh SPTSSB (11747773_x_at) / RFU PRSS12 (11739890_at) / Fold change /veh PRSS12 (11739890_at) / RFU BIN1 (11741810_x_at) / Fold change /veh BIN1 (11741810_x_at) / RFU WNT11 (11732464_a_at) / Fold change /veh WNT11 (11732464_a_at) / RFU C10orf10 (11716521_a_at) / Fold change /veh C10orf10 (11716521_a_at) / RFU C5orf56 (11738089_at) / Fold change /veh C5orf56 (11738089_at) / RFU CYB561 (11721691_x_at) / Fold change /veh CYB561 (11721691_x_at) / RFU ANKRD19P (11752326_a_at) / Fold change /veh ANKRD19P (11752326_a_at) / RFU OR2T12 /// OR2T33 /// OR2T8 (11738714_s_at) / Fold change /veh OR2T12 /// OR2T33 /// OR2T8 (11738714_s_at) / RFU VCAN (11748164_a_at) / Fold change /veh VCAN (11748164_a_at) / RFU JSRP1 (11732532_at) / Fold change /veh JSRP1 (11732532_at) / RFU KRTAP10-11 (11738290_x_at) / Fold change /veh KRTAP10-11 (11738290_x_at) / RFU MYO3A (11730013_a_at) / Fold change /veh MYO3A (11730013_a_at) / RFU EBF3 (11725865_a_at) / Fold change /veh EBF3 (11725865_a_at) / RFU CAMK2N1 (11719241_x_at) / Fold change /veh CAMK2N1 (11719241_x_at) / RFU C5orf56 (11738088_a_at) / Fold change /veh C5orf56 (11738088_a_at) / RFU OLFML3 (11715873_a_at) / Fold change /veh OLFML3 (11715873_a_at) / RFU LOC100653217 /// NTM (11731650_a_at) / Fold change /veh LOC100653217 /// NTM (11731650_a_at) / RFU MAPK11 (11762145_a_at) / Fold change /veh MAPK11 (11762145_a_at) / RFU FIZ1 (11724087_x_at) / Fold change /veh FIZ1 (11724087_x_at) / RFU OASL (11726364_x_at) / Fold change /veh OASL (11726364_x_at) / RFU SOX15 (11748057_x_at) / Fold change /veh SOX15 (11748057_x_at) / RFU CD79A (11719716_a_at) / Fold change /veh CD79A (11719716_a_at) / RFU HIST1H1D (11736915_at) / Fold change /veh HIST1H1D (11736915_at) / RFU CASKIN2 (11723855_a_at) / Fold change /veh CASKIN2 (11723855_a_at) / RFU LOC730098 (11760151_x_at) / Fold change /veh LOC730098 (11760151_x_at) / RFU OR4N2 (11742367_at) / Fold change /veh OR4N2 (11742367_at) / RFU PRRT2 (11749266_a_at) / Fold change /veh PRRT2 (11749266_a_at) / RFU SNX32 (11753110_a_at) / Fold change /veh SNX32 (11753110_a_at) / RFU CDHR5 (11726645_a_at) / Fold change /veh CDHR5 (11726645_a_at) / RFU RCAN1 (11760418_a_at) / Fold change /veh RCAN1 (11760418_a_at) / RFU FAM167A (11723789_a_at) / Fold change /veh FAM167A (11723789_a_at) / RFU FAM26E (11764081_at) / Fold change /veh FAM26E (11764081_at) / RFU ISYNA1 (11749810_s_at) / Fold change /veh ISYNA1 (11749810_s_at) / RFU ACY1 (11761880_at) / Fold change /veh ACY1 (11761880_at) / RFU 11764098_at / Fold change /veh 11764098_at / RFU SAMD14 (11745864_x_at) / Fold change /veh SAMD14 (11745864_x_at) / RFU NPB (11741838_a_at) / Fold change /veh NPB (11741838_a_at) / RFU TMPRSS6 (11731388_a_at) / Fold change /veh TMPRSS6 (11731388_a_at) / RFU KRTAP10-2 (11738614_at) / Fold change /veh KRTAP10-2 (11738614_at) / RFU ARHGAP8 /// PRR5-ARHGAP8 (11727945_x_at) / Fold change /veh ARHGAP8 /// PRR5-ARHGAP8 (11727945_x_at) / RFU KRTAP5-7 /// NADSYN1 (11734609_at) / Fold change /veh KRTAP5-7 /// NADSYN1 (11734609_at) / RFU RASL12 (11751679_a_at) / Fold change /veh RASL12 (11751679_a_at) / RFU CDKN2B (11736163_a_at) / Fold change /veh CDKN2B (11736163_a_at) / RFU PRF1 (11729649_at) / Fold change /veh PRF1 (11729649_at) / RFU, ZNF638 /// ZNF638-IT1 / Fold change vs veh, ZNF638 /// ZNF638-IT1 / RFU, PANK3 / Fold change vs veh, PANK3 / RFU, SH3YL1 / Fold change vs veh, SH3YL1 / RFU, ZEB2 / Fold change vs veh, ZEB2 / RFU, NRIP1 / Fold change vs veh, NRIP1 / RFU, PTTG1IP / Fold change vs veh, PTTG1IP / RFU, CAPN2 / Fold change vs veh, CAPN2 / RFU, MED14 / Fold change vs veh, MED14 / RFU, SNORA58 / Fold change vs veh, SNORA58 / RFU, C1orf63 / Fold change vs veh, C1orf63 / RFU, LRRFIP1 / Fold change vs veh, LRRFIP1 / RFU, NDUFAF7 / Fold change vs veh, NDUFAF7 / RFU, SLC12A2 / Fold change vs veh, SLC12A2 / RFU, IBTK / Fold change vs veh, IBTK / RFU, ESF1 / Fold change vs veh, ESF1 / Fold change vs veh, TMEM50B / RFU, TAOK1 / Fold change vs veh, TAOK1 / RFU, ACBD3 / Fold change vs veh, ACBD3 / RFU, TMA16 / Fold change vs veh, TMA16 / RFU, RWDD3 / Fold change vs veh, RWDD3 / RFU, BCAT1 / Fold change vs veh, BCAT1 / RFU, EDEM3 / Fold change vs veh, EDEM3 / RFU, TMEM33 / Fold change vs veh, TMEM33 / RFU, WDR75 / Fold change vs veh, WDR75 / RFU, AHCTF1 / Fold change vs veh, AHCTF1 / RFU, TFRC / Fold change vs veh, TFRC / RFU, ZDHHC17 / Fold change vs veh, ZDHHC17 / RFU, NOM1 / Fold change vs veh, NOM1 / RFU, ARL8B / Fold change vs veh, ARL8B / RFU, ZBTB11 / Fold change vs veh, ZBTB11 / RFU, TAMM41 / Fold change vs veh, TAMM41 / RFU, KIAA1704 /// LOC100996395 / Fold change vs veh, KIAA1704 /// LOC100996395 / RFU, ING1 / Fold change vs veh, ING1 / RFU, TRMT61B / Fold change vs veh, TRMT61B / RFU, FUBP3 / Fold change vs veh, FUBP3 / RFU, TP53 / Fold change vs veh, TP53 / RFU, TNKS2 / Fold change vs veh, TNKS2 / RFU, ZFP14 / Fold change vs veh, ZFP14 / RFU, ACTR2 / Fold change vs veh, ACTR2 / RFU, PPP3R1 / Fold change vs veh, PPP3R1 / RFU, PIK3R1 / Fold change vs veh, PIK3R1 / RFU, HNRNPA1 / Fold change vs veh, HNRNPA1 / RFU, RNF170 / Fold change vs veh, RNF170 / RFU, ZNF28 / Fold change vs veh, ZNF28 / RFU, RNGTT / Fold change vs veh, RNGTT / RFU, OGT / Fold change vs veh, OGT / RFU, BRD1 / Fold change vs veh, BRD1 / RFU, MARS / Fold change vs veh, MARS / RFU, ZNF655 / Fold change vs veh, ZNF655 / RFU, FAHD1 / Fold change vs veh, FAHD1 / RFU, BDP1 / Fold change vs veh, BDP1 / RFU, LRRCC1 / Fold change vs veh, LRRCC1 / RFU, ARID1A / Fold change vs veh, ARID1A / RFU, ZNF146 / Fold change vs veh, ZNF146 / RFU, ZNF330 / Fold change vs veh, ZNF330 / RFU, GPN3 / Fold change vs veh, GPN3 / RFU, C9orf123 / Fold change vs veh, C9orf123 / RFU, N4BP2L2 / Fold change vs veh, N4BP2L2 / RFU, ARFIP1 / Fold change vs veh, ARFIP1 / RFU, FAM179B / Fold change vs veh, FAM179B / RFU, BCL10 / Fold change vs veh, BCL10 / RFU, UHRF1BP1L / Fold change vs veh, UHRF1BP1L / RFU, BET1 / Fold change vs veh, BET1 / RFU, CNOT2 / Fold change vs veh, CNOT2 / RFU, ZNF268 / Fold change vs veh, ZNF268 / Fold change vs veh, ZNF507 / RFU, DGCR2 / Fold change vs veh, DGCR2 / RFU, WDSUB1 / Fold change vs veh, WDSUB1 / Fold change vs veh, HSP90B1 /// MIR3652 / RFU, ADSS / Fold change vs veh, ADSS / RFU, GK / Fold change vs veh, GK / RFU, ZNF148 / Fold change vs veh, ZNF148 / RFU, TAF9 / Fold change vs veh, TAF9 / RFU, SLC1A5 / Fold change vs veh, SLC1A5 / RFU, SLMO2 / Fold change vs veh, SLMO2 / RFU, ABCC4 / Fold change vs veh, ABCC4 / RFU, LOC101060439 /// RAP1B / Fold change vs veh, LOC101060439 /// RAP1B / RFU, RFX7 / Fold change vs veh, RFX7 / RFU, GTPBP10 / Fold change vs veh, GTPBP10 / RFU, CNEP1R1 / Fold change vs veh, CNEP1R1 / RFU, BIVM-ERCC5 /// ERCC5 / Fold change vs veh, BIVM-ERCC5 /// ERCC5 / RFU, ILF3 / Fold change vs veh, ILF3 / RFU 11762660_at / Fold change /veh 11762660_at / RFU VCAN (11757783_s_at) / Fold change /veh VCAN (11757783_s_at) / RFU DDX43 (11728927_at) / Fold change /veh DDX43 (11728927_at) / RFU KRT8 (11758188_x_at) / Fold change /veh KRT8 (11758188_x_at) / RFU NKD1 (11759106_at) / Fold change /veh NKD1 (11759106_at) / RFU SRD5A1 (11742802_a_at) / Fold change /veh SRD5A1 (11742802_a_at) / RFU TPSAB1 /// TPSB2 (11721975_s_at) / Fold change /veh TPSAB1 /// TPSB2 (11721975_s_at) / RFU GSTM3 (11746129_a_at) / Fold change /veh GSTM3 (11746129_a_at) / RFU IL23R (11737362_x_at) / Fold change /veh IL23R (11737362_x_at) / RFU TMEM51 (11727254_a_at) / Fold change /veh TMEM51 (11727254_a_at) / RFU PIWIL2 (11732686_x_at) / Fold change /veh PIWIL2 (11732686_x_at) / RFU ORM1 (11744905_x_at) / Fold change /veh ORM1 (11744905_x_at) / RFU CCDC152 (11743942_at) / Fold change /veh CCDC152 (11743942_at) / RFU ECM1 (11717891_a_at) / Fold change /veh ECM1 (11717891_a_at) / RFU IL23R (11748794_a_at) / Fold change /veh IL23R (11748794_a_at) / RFU TNFAIP8L3 (11732012_x_at) / Fold change /veh TNFAIP8L3 (11732012_x_at) / RFU MBOAT4 (11741988_at) / Fold change /veh MBOAT4 (11741988_at) / RFU 11764193_at / Fold change /veh 11764193_at / RFU TMEM53 (11763286_at) / Fold change /veh TMEM53 (11763286_at) / RFU MAGEB2 (11727129_at) / Fold change /veh MAGEB2 (11727129_at) / RFU TMEM200A (11744735_a_at) / Fold change /veh TMEM200A (11744735_a_at) / RFU CCDC152 (11751479_a_at) / Fold change /veh CCDC152 (11751479_a_at) / RFU FAM211A (11726209_a_at) / Fold change /veh FAM211A (11726209_a_at) / RFU RGS16 (11746705_a_at) / Fold change /veh RGS16 (11746705_a_at) / RFU VCAN (11755009_s_at) / Fold change /veh VCAN (11755009_s_at) / RFU RHOB (11743442_s_at) / Fold change /veh RHOB (11743442_s_at) / RFU RGS16 (11720943_a_at) / Fold change /veh RGS16 (11720943_a_at) / RFU RGS16 (11720944_at) / Fold change /veh RGS16 (11720944_at) / RFU, VPS4B / Fold change vs veh, VPS4B / RFU, CREB1 / Fold change vs veh, CREB1 / RFU, DNAJC13 / Fold change vs veh, DNAJC13 / RFU, GNAQ / Fold change vs veh, GNAQ / RFU, CDK5R1 / Fold change vs veh, CDK5R1 / RFU, ZRANB3 / Fold change vs veh, ZRANB3 / RFU, CUL4A / Fold change vs veh, CUL4A / RFU, CCNY / Fold change vs veh, CCNY / RFU, UFL1 / Fold change vs veh, UFL1 / RFU, COG3 / Fold change vs veh, COG3 / RFU, DIAPH2 / Fold change vs veh, DIAPH2 / RFU, SKA2 / Fold change vs veh, SKA2 / RFU, AFF3 / Fold change vs veh, AFF3 / RFU, LMF1 / Fold change vs veh, LMF1 / RFU, IPO11 / Fold change vs veh, IPO11 / RFU, DFFB / Fold change vs veh, DFFB / RFU, FOXP1 / Fold change vs veh, FOXP1 / RFU, CARD8 / Fold change vs veh, CARD8 / RFU, STRN3 / Fold change vs veh, STRN3 / RFU, ADK / Fold change vs veh, ADK / RFU, RASSF2 / Fold change vs veh, RASSF2 / RFU, WIPF1 / Fold change vs veh, WIPF1 / RFU, LARP1B / Fold change vs veh, LARP1B / RFU, RASA1 / Fold change vs veh, RASA1 / RFU, RB1 / Fold change vs veh, RB1 / RFU, PPFIA1 / Fold change vs veh, PPFIA1 / RFU, MAT2A / Fold change vs veh, MAT2A / RFU, CCT5 / Fold change vs veh, CCT5 / RFU, WDR92 / Fold change vs veh, WDR92 / RFU, CUX1 / Fold change vs veh, CUX1 / RFU, TTC7A / Fold change vs veh, TTC7A / RFU, TMEM135 / Fold change vs veh, TMEM135 / RFU, DEPTOR / Fold change vs veh, DEPTOR / RFU, CPM / Fold change vs veh, CPM / RFU, DNAJB6 / Fold change vs veh, DNAJB6 / RFU, CACNA2D3 / Fold change vs veh, CACNA2D3 / RFU, DTX4 / Fold change vs veh, DTX4 / RFU, TFCP2 / Fold change vs veh, TFCP2 / RFU, GMCL1 /// GMCL1P1 / Fold change vs veh, GMCL1 /// GMCL1P1 / RFU, AEBP2 / Fold change vs veh, AEBP2 / RFU, SNHG1 /// SNORD22 /// SNORD25 /// SNORD26 /// SNORD27 /// SNORD28 /// SNORD29 /// SNORD31 / Fold change vs veh, SNHG1 /// SNORD22 /// SNORD25 /// SNORD26 /// SNORD27 /// SNORD28 /// SNORD29 /// SNORD31 / Fold change (Aza/veh), C12orf56 (ProbeSet 11735607_a_at) / Fold change (ACY-1035/veh), C12orf56 (ProbeSet 11735607_a_at) / Fold change (Aza/veh), FGFR1OP (ProbeSet 11751329_s_at) / Fold change (ACY-1035/veh), FGFR1OP (ProbeSet 11751329_s_at) / Fold change (Aza/veh), VPS36 (ProbeSet 11739960_a_at) / Fold change (ACY-1035/veh), VPS36 (ProbeSet 11739960_a_at) / RFU SYPL1 (11715823_x_at) / Fold change /veh SYPL1 (11715823_x_at) / RFU IGFBP7 (11715501_s_at) / Fold change /veh IGFBP7 (11715501_s_at) / RFU REEP3 (11722064_at) / Fold change /veh REEP3 (11722064_at) / RFU IGLL1 (11728026_x_at) / Fold change /veh IGLL1 (11728026_x_at): dose or concentration left out as unconfirmed
Conditions: MV-4-11 cells, 48 hours

Structure (SMILES): Nc1ccc(-c2cccs2)cc1NC(=O)c1ccc2c(c1)cc(C1CC1)n2CCN1CCOCC1 [ACY-1035]
- RFU C5orf56 (11738088_a_at): 66.78 RFU
